Data set [1] has as its system hydrochloric acid.ethanol-induced gastric ulcer. As to the kind of experiment: Inhibitory effect on hydrochloric acid.ethanol-induced gastric ulcer. Particulars: male SD rats, oral, 30 min before 98% ethanol containing 200 mM hydrochloric acid; for inhibition in vivo at 30 mg/kg: Rattus norvegicus, 1 h, read-out: Inhibitory Percent (ulcer inhibitory percent). It is filed as in vivo. On the procedure:
Male SD rats of 7-week age were fasted for 24 hours, with a fast of water beginning in early morning of the day when the experiments were performed. The rats were classified into groups each consisting of five rats, such that all the groups have substantially the same average weight. Before giving hydrochloric acid.ethanol to the rats, the compounds of the Examples indicated in TABLE 2 were orally administered as specimen drugs to the rats, with a dose of 30 mg/kg. Thirty minutes later, 1 mL of 98% ethanol containing 200 mM of hydrochloric acid was orally administered to each specimen rat. One hour later, the specimen rats were sacrificed by ether, and the mucosa of the stomach of each rat was semi-fixed with 2% formalin. The longitudinal length of the damaged area of the gastric mucosa was measured, and the anti-ulcer percent values of the individual specimen drugs were calculated on the basis of the sum of the measured length values of each group of the specimen rats, in the same manner as in Example 68.

Data set [2] concerns water-immersion restraint stress-induced gastric ulcer. As to the kind of experiment: Inhibitory effect on water-immersion restraint stress-induced gastric ulcer. The data set is classed as in vivo. To be noted: male SD rats, oral, 10 mg/kg, 7 h water-immersion restraint stress. As to the method: Male 7-week SD rats were fasted for 24 hours, with a fast of water beginning in early morning of the day when the experiments were performed. The rats were classified into groups each consisting of five rats, such that all the groups have substantially the same average weight. Before giving a stress to the rats, the compounds of the Examples indicated in TABLE 1 were orally administered as specimen drugs to the rats, with a dose of 10 mg/kg. The rats were then kept in stress cages, and were given a stress by immersing the cages in a water bath kept at a substantially constant temperature of 23°±1° C., such that the water level was at the height of the xiphoid of the rats. Seven hours later, the specimen rats were sacrificed by ether, and the mucosa of the stomach of each rat was semi-fixed with 2% formalin. The longitudinal length of the damaged area of the gastric mucosa was measured. A sum of the measured length values of the rats of each group was calculated as an ulcer index. An anti-ulcer or ulcer inhibitory percent (%) was calculated as {1-(ulcer index of each group of specimen rats)/(ulcer index of non-specimen group)}×100.

Data set [3] relates to acetic acid-induced gastric ulcer. Briefly: Healing effect on acetic acid-induced gastric ulcer of rat. It is filed as in vivo. To be noted: male Donryu rat, oral, 50 mg/kg two times a day, 10 consecutive days; ulcer surface area. On the procedure: A male Donryu rat of 7-week age was subjected to abdominal incision to expose the stomach, with pentobarbital used as an anesthesia. Using a metal ring having an inside diameter of 10 mm, 200 μL of glacial acetic acid was applied for contact with a serosa-side part of a boundary area between the antrum and the corpus body. The abdomen of the specimen rat subjected to the glacial acetic acid was closed by an operation, and the rat was then fed in a normal way. The compound obtained in Example 16 was orally administered as a specimen drug to the specimen rat two times a day (at 9:00 a.m. and 5:00 p.m.), each time with a dose of 50 mg/kg, beginning on the day following the day on which the glacial acetic acid was applied to the rat. The oral administration continued for 10 consecutive days, with a total of 20 administrations. On the day following the last day of administration, the specimen rat was sacrificed with ether, and the ulcer portion of the rat was fixed with formalin. The surface area of the ulcer portion was measured. The healing percent (%) calculated on the basis of the measured surface area was 28.9%.

The nature of data set [4]: Single-dose toxicity study. To be noted: mouse, in vivo, male ddY mice, oral, observed two weeks, read-out: median lethal dose LD50. As to the method:
Ten male ddY mice (each having a weight of 22-28 g) were used as specimen animal in a cage kept at a substantially constant temperature of 23°±1° C. and under a substantially constant humidity of 55±5%. The compound prepared in Example 39, that is, 2-(2-dimethylaminobenzylthio)-5,5-dimethylimidazolin-4-thione was used as the specimen drug. This compound was suspended in a 2% solution of polysorbate 80, and the suspension was administered to each specimen mouse, with different doses. […] On the basis of the death percent, lethal dose (LD50) which causes a 50% death was obtained as an index indicative of the single dose toxicity. The obtained median lethal dose LD50 (oral administration) was 2000 mg/kg or more. It was thus confirmed that the median lethal dose LD50 (oral administration) of the compound according to the present invention was sufficiently large, indicating a low degree of toxicity or a high degree of safety.

A word on the LD50: it is the dose at which mortality reaches 50%.

As for `O=C1CN=C(SCc2ccccn2)N1` [Example 1, 2-(2-pyridylmethylthio)imidazolin-4-one], the inhibition in vivo at 30 mg/kg in data set [1] amounted to 71.9%. With `O=C1N=C(SCc2ccccn2)N/C1=C/c1ccccc1` [Example 4, 2-(2-pyridylmethylthio)-5-trans-benzylideneimidazolin-4-one], in data set [2], the “Inhibitory Percent (ulcer inhibitory percent)” value (“Inhibitory Percent” below) was found to be 63.3%. Still for that read-out and setting: under `C=C1NC(SCc2ccccn2)=NC1=O` [Example 5, 2-(2-pyridylmethylthio)-5-trans-methylideneimidazolin-4-one] stands 23.3%. On to `CC1(C)N=C(SCc2ccccn2)NC1=O` [Example 8, 2-(2-pyridylmethylthio)-5,5-dimethylimidazolin-4-one], for which, in data set [1], the inhibition in vivo at 30 mg/kg stood at 93%. The same measure, in the same setting: in the case of `CC1N=C(SCc2ccccn2)NC1=O` (centres unmarked) [Example 9, 2-(2-pyridylmethylthio)-5-methylimidazolin-4-one] it was 94.9%. As for `CCC1(c2ccccc2)N=C(SCc2ccccn2)NC1=O` (centres unmarked) [Example 13, 2-(2-pyridylmethylthio)-5-ethyl-5-phenylimidazolin-4-one], the “Inhibitory Percent” value in data set [2] stood at 46.3%. In data set [3], `CN(C)c1ccccc1CSC1=NC(C)(C)C(=O)N1` [Example 16, 2-(2-dimethylaminobenzylthio)-5,5-dimethylimidazolin-4-one] showed a healing percent of 28.9%. Moreover, the “Inhibitory Percent” value in data set [2] was determined as 82.4%. With `CN(C)c1ccccc1CSC1=NC(=O)/C(=C\c2ccccc2)N1` [Example 18, 2-(2-dimethylaminobenzylthio)-5-trans-benzylideneimidazolin-4-one], the “Inhibitory Percent” value came out at 37.4% in data set [1] (30 mg/kg) and 34.1% in data set [2].

In the case of `CC(C)CN(C)c1ccccc1CSC1=NC(C)(C)C(=O)N1` [Example 21, 2-(2-N-isobutyl-N-methylaminobenzylthio)-5,5-dimethylimidazolin-4-one], the inhibition in vivo at 30 mg/kg in data set [1] is 99.6%. With `CC1N=C(SCc2ccccc2N(C)C)NC1=O` (centres unmarked) [Example 22, 2-(2-dimethylaminobenzylthio)-5-methylimidazolin-4-one], the “Inhibitory Percent” value in data set [2] stood at 48.9%. `CN(C)c1ccccc1CSC1=NC(Cc2ccccc2)C(=O)N1` (centres unmarked) [Example 23, 2-(2-dimethylaminobenzylthio)-5-benzylimidazolin-4-one]: the inhibition in vivo at 30 mg/kg in data set [1] turned out to be 83.6%. Regarding `CCC1(CC)N=C(SCc2ccccc2N(C)C)NC1=O` [Example 28, 2-(2-dimethylaminobenzylthio)-5,5-diethylimidazolin-4-one], the “Inhibitory Percent” value in data set [2] is recorded as 73.8%. `CCCCC1(CC)N=C(SCc2ccccc2N(C)C)NC1=O` (centres unmarked) [Example 29, 2-(2-dimethylaminobenzylthio)-5-butyl-5-ethylimidazolin-4-one]: in data set [1], the inhibition in vivo at 30 mg/kg amounted to 69.5%.

For the compound `CCC1(C)C(=O)N=C(SCc2ccccc2N(C)C)N1C(C)=O` (centres unmarked) [Example 34, 1-N-acetyl-2-(2-dimethylaminobenzylthio)-5-ethyl-5-methyl-2-imidazolin-4-one], the inhibition in vivo at 30 mg/kg in data set [1] was 52%.

Take `CN1C(=O)C(C)(C)N=C1SCc1ccccc1N(C)C` [Example 35, 1-N-methyl-2-(2-dimethylaminobenzylthio)-4,4-dimethyl-2-imidazolin-5-one]: the “Inhibitory Percent” value in data set [2] is on record as 30.6%. For the compound `CN(C)c1ccccc1CSC1=NC(C)(C)C(=S)N1` [Example 39, 2-(2-dimethylaminobenzylthio)-5,5-dimethylimidazolin-4-thione], in data set [4], the LD50 at 336 h is at least 2000 mg/kg. Turning to `CN(C)c1ccccc1CSC1=NC(C)(c2ccccc2)C(=S)N1` (centres unmarked) [Example 41, 2-(2-dimethylaminobenzylthio)-5-phenyl-5-methylimidazolin-4-thione], the inhibition in vivo at 30 mg/kg in data set [1] was found to be 74.5%. With `CC1(C)N=C(SCc2cccc3cccnc23)NC1=S` [Example 44, 2-(8-quinolynylmethylthio)-5,5-dimethylimidazolin-4-thione], in data set [2], the “Inhibitory Percent” value was found to be 28.8%.
